Results from patent US7022738B2, “α-ketoamide derivative and use thereof” (Senju Pharmaceutical Co., Ltd., priority 2002, dated 2006).

Columns and labels:
[1] = Permeability test with Caco-2 cells; format: in vitro ADME; settings: human, Caco-2 monolayer, apical to basolateral, 30 and 60 minutes, read-out: apparent permeation coefficient (Papp)
Experimental: Permeability Test with Caco-2 Cells
0.5×10^6/cm^2 of Caco-2 cells (ATCC Catalog No. HTB-37, Manassas, Va., USA) were seeded into Transwell (polycarbonate filter: pore diameter 0.4 μm; culture area 0.33 cm^2; available from Costar Co.), and incubated in Dulbecco's modified Eagle's minimum essential medium (DMEM; available from Fisher Scientific International Inc.) for 21 to 30 days under the conditions of 37° C., 5% CO2 and 95% relative humidity, whereby a monolayer cell was prepared. The confluence of such a monolayer cell was evaluated by measuring trans epithelial electronic resistance (TEER). […] Based on the quantification results, apparent permeation coefficient (Papp) was calculated according to the formula: Papp=(δQ/δt)×(1/60AC0). • Papp: apparent permeation coefficient (cm/sec) • δQ/δt: permeation velocity (pmol/min) • A: area of monolayer cell=0.33 cm^2 • C0: initial concentration at apical membrane side (pmol/mL)

## CCCCNC(=O)C(=O)[C@H](CC(C)C)NC(=O)[C@@H](NS(=O)(=O)c1ccc(F)cc1)C(C)C [Compound 1, (3S)-N-Butyl-3-((2S)-2-(((4-fluorophenyl)sulfonyl)amino)-3-methylbutanoylamino)-5-methyl-2-oxohexanamide]
[1]
  Papp A→B at 60 min, 10 μM: 17 ×10⁻⁶ cm/s
other
  melting point: 107.6 to 109.9 °C
